Test results: the OligoGym collection
Oligonucleotides are written 5' to 3', each unit as a sugar letter and its base; * is a phosphorothioate linkage, no mark a phosphodiester; rarer units and linkages stand in square brackets, end groups in braces. Plain capitals give the bases only. d = 2'-deoxy (DNA); r = 2'-OH (RNA)

The substances below were run against UBE2V1 (assay: reporter assay of Huesken 2005). Conditions: siRNA.
Note: test concentration or dose not given here.

Substance | normalised inhibition (eCFP-eYFP dual reporter) [%]
sense rArArGrArGrCrCrArUrArUrCrArGrUrGrCrUrAdTdT / antisense rUrArGrCrArCrUrGrArUrArUrGrGrCrUrCrUrUdGdG | 84.4
sense rArArUrArUrArCrArGrCrCrUrUrArArArArUrAdTdT / antisense rUrArUrUrUrUrArArGrGrCrUrGrUrArUrArUrUdCdG | 82.9
sense rArArUrGrGrArGrUrGrGrUrGrGrArCrCrCrArAdTdT / antisense rUrUrGrGrGrUrCrCrArCrCrArCrUrCrCrArUrUdAdG | 83.5
sense rArArUrUrCrArUrArUrArGrCrArUrCrArArArGdTdT / antisense rCrUrUrUrGrArUrGrCrUrArUrArUrGrArArUrUdCdT | 70
sense rArCrCrUrArGrArArArArUrUrUrCrArCrUrGrCdTdT / antisense rGrCrArGrUrGrArArArUrUrUrUrCrUrArGrGrUdTdC | 36.5
sense rArGrArArArGrGrArGrUrArGrGrArGrArUrGrGdTdT / antisense rCrCrArUrCrUrCrCrUrArCrUrCrCrUrUrUrCrUdGdG | 58.6
sense rArGrArArGrGrCrCrArGrArArArGrGrArGrUrAdTdT / antisense rUrArCrUrCrCrUrUrUrCrUrGrGrCrCrUrUrCrUdTdC | 86.1
sense rArGrArCrUrUrGrArArCrCrUrArGrArArArArUdTdT / antisense rArUrUrUrUrCrUrArGrGrUrUrCrArArGrUrCrUdTdC | 71.4
sense rArGrArGrCrCrArUrArUrCrArGrUrGrCrUrArGdTdT / antisense rCrUrArGrCrArCrUrGrArUrArUrGrGrCrUrCrUdTdG | 90.3
sense rArGrArUrGrGrArCrArGrGrGrArUrGrArUrArAdTdT / antisense rUrUrArUrCrArUrCrCrCrUrGrUrCrCrArUrCrUdTdG | 90
sense rArGrCrUrGrGrGrGrUrCrUrArGrArArGrArUrGdTdT / antisense rCrArUrCrUrUrCrUrArGrArCrCrCrCrArGrCrUdAdA | 73
sense rArGrGrArArGrArCrUrUrGrArArCrCrUrArGrAdTdT / antisense rUrCrUrArGrGrUrUrCrArArGrUrCrUrUrCrCrUdTdC | 78
sense rArGrGrArGrArUrGrGrCrArCrArGrUrUrArGrCdTdT / antisense rGrCrUrArArCrUrGrUrGrCrCrArUrCrUrCrCrUdAdC | 60.9
sense rArGrGrArGrUrArGrGrArGrArUrGrGrCrArCrAdTdT / antisense rUrGrUrGrCrCrArUrCrUrCrCrUrArCrUrCrCrUdTdT | 92.3
sense rArGrUrArArArArGrUrCrCrCrUrCrGrCrArArUdTdT / antisense rArUrUrGrCrGrArGrGrGrArCrUrUrUrUrArCrUdCdC | 91
sense rArGrUrCrCrCrUrCrGrCrArArUrUrUrCrCrGrAdTdT / antisense rUrCrGrGrArArArUrUrGrCrGrArGrGrGrArCrUdTdT | 96
sense rArGrUrUrCrUrArArUrGrGrArGrUrGrGrUrGrGdTdT / antisense rCrCrArCrCrArCrUrCrCrArUrUrArGrArArCrUdAdT | 56.8
sense rArUrUrUrCrArCrUrGrCrArArArGrGrArGrUrAdTdT / antisense rUrArCrUrCrCrUrUrUrGrCrArGrUrGrArArArUdTdT | 95
sense rCrArArArGrUrUrGrUrCrCrUrGrCrArArGrArGdTdT / antisense rCrUrCrUrUrGrCrArGrGrArCrArArCrUrUrUrGdAdT | 71.5
sense rCrArArGrArGrCrUrUrCrGrGrCrGrCrCrUrArAdTdT / antisense rUrUrArGrGrCrGrCrCrGrArArGrCrUrCrUrUrGdCdA | 84.1
sense rCrArArUrUrUrCrCrGrArCrUrGrUrUrGrGrArAdTdT / antisense rUrUrCrCrArArCrArGrUrCrGrGrArArArUrUrGdCdG | 95.3
sense rCrArGrArArUrUrCrArUrArUrArGrCrArUrCrAdTdT / antisense rUrGrArUrGrCrUrArUrArUrGrArArUrUrCrUrGdCdC | 90
sense rCrArGrUrGrCrUrArGrCrArArArArUrGrGrCrAdTdT / antisense rUrGrCrCrArUrUrUrUrGrCrUrArGrCrArCrUrGdAdT | 87.5
sense rCrArUrArUrArGrCrArUrCrArArArGrUrUrGrUdTdT / antisense rArCrArArCrUrUrUrGrArUrGrCrUrArUrArUrGdAdA | 77.7
sense rCrCrCrUrCrGrCrArArUrUrUrCrCrGrArCrUrGdTdT / antisense rCrArGrUrCrGrGrArArArUrUrGrCrGrArGrGrGdAdC | 84.5
sense rCrCrUrArArUrGrArUrGrUrCrUrArArArGrArAdTdT / antisense rUrUrCrUrUrUrArGrArCrArUrCrArUrUrArGrGdCdG | 95.1

Substance | normalised inhibition (eCFP-eYFP dual reporter) [%]
sense rCrCrUrCrArGrCrCrGrCrCrCrGrArArGrGrArCdTdT / antisense rGrUrCrCrUrUrCrGrGrGrCrGrGrCrUrGrArGrGdGdA | 55.2
sense rCrCrUrCrCrArArGrArArCrArArUrUrUrArUrGdTdT / antisense rCrArUrArArArUrUrGrUrUrCrUrUrGrGrArGrGdCdC | 63.1
sense rCrCrUrUrUrGrUrArArGrArUrUrUrGrUrArArCdTdT / antisense rGrUrUrArCrArArArUrCrUrUrArCrArArArGrGdGdG | 63.8
sense rCrGrArArUrArUrArCrArGrCrCrUrUrArArArAdTdT / antisense rUrUrUrUrArArGrGrCrUrGrUrArUrArUrUrCrGdGdT | 89.4
sense rCrUrArGrArArArArUrUrUrCrArCrUrGrCrArAdTdT / antisense rUrUrGrCrArGrUrGrArArArUrUrUrUrCrUrArGdGdT | 96
sense rCrUrArGrArArGrArUrGrArCrGrArArGrArCrAdTdT / antisense rUrGrUrCrUrUrCrGrUrCrArUrCrUrUrCrUrArGdAdC | 88.8
sense rCrUrUrGrArArCrCrUrArGrArArArArUrUrUrCdTdT / antisense rGrArArArUrUrUrUrCrUrArGrGrUrUrCrArArGdTdC | 53.5
sense rGrArArArArUrUrUrCrArCrUrGrCrArArArGrGdTdT / antisense rCrCrUrUrUrGrCrArGrUrGrArArArUrUrUrUrCdTdA | 83.7
sense rGrArArGrArArCrUrCrGrArArGrArArGrGrCrCdTdT / antisense rGrGrCrCrUrUrCrUrUrCrGrArGrUrUrCrUrUrCdCdA | 53.8
sense rGrArArGrArUrGrArCrGrArArGrArCrArUrGrAdTdT / antisense rUrCrArUrGrUrCrUrUrCrGrUrCrArUrCrUrUrCdTdA | 95
sense rGrArGrCrCrArUrArUrCrArGrUrGrCrUrArGrCdTdT / antisense rGrCrUrArGrCrArCrUrGrArUrArUrGrGrCrUrCdTdT | 90.9
sense rGrCrArArGrArGrCrUrUrCrGrGrCrGrCrCrUrAdTdT / antisense rUrArGrGrCrGrCrCrGrArArGrCrUrCrUrUrGrCdAdG | 82.6
sense rGrCrArGrArArUrUrCrArUrArUrArGrCrArUrCdTdT / antisense rGrArUrGrCrUrArUrArUrGrArArUrUrCrUrGrCdCdA | 82
sense rGrCrCrArUrArUrCrArGrUrGrCrUrArGrCrArAdTdT / antisense rUrUrGrCrUrArGrCrArCrUrGrArUrArUrGrGrCdTdC | 92.1
sense rGrCrCrUrArArUrGrArUrGrUrCrUrArArArGrAdTdT / antisense rUrCrUrUrUrArGrArCrArUrCrArUrUrArGrGrCdGdC | 94.5
sense rGrCrCrUrCrCrArArGrArArCrArArUrUrUrArUdTdT / antisense rArUrArArArUrUrGrUrUrCrUrUrGrGrArGrGrCdCdC | 76.5
sense rGrGrArGrUrArArArArGrUrCrCrCrUrCrGrCrAdTdT / antisense rUrGrCrGrArGrGrGrArCrUrUrUrUrArCrUrCrCdTdT | 88.7
sense rGrGrArUrGrArUrArArUrUrGrGrGrCrCrUrCrCdTdT / antisense rGrGrArGrGrCrCrCrArArUrUrArUrCrArUrCrCdCdT | 70.5
sense rGrGrGrUrCrUrArGrArArGrArUrGrArCrGrArAdTdT / antisense rUrUrCrGrUrCrArUrCrUrUrCrUrArGrArCrCrCdCdA | 96.3
sense rGrGrUrGrGrArCrCrCrArArGrArGrCrCrArUrAdTdT / antisense rUrArUrGrGrCrUrCrUrUrGrGrGrUrCrCrArCrCdAdC | 84.1
sense rGrUrArGrGrArGrArUrGrGrCrArCrArGrUrUrAdTdT / antisense rUrArArCrUrGrUrGrCrCrArUrCrUrCrCrUrArCdTdC | 88.8
sense rGrUrCrUrArArArGrArArArArUrArUrGrArArAdTdT / antisense rUrUrUrCrArUrArUrUrUrUrCrUrUrUrArGrArCdAdT | 75.3
sense rGrUrCrUrArGrArArGrArUrGrArCrGrArArGrAdTdT / antisense rUrCrUrUrCrGrUrCrArUrCrUrUrCrUrArGrArCdCdC | 92
sense rUrArCrArArGrArUrGrGrArCrArGrGrGrArUrGdTdT / antisense rCrArUrCrCrCrUrGrUrCrCrArUrCrUrUrGrUrAdAdG | 52.7
sense rUrArGrCrArArArArUrGrGrCrArGrArArUrUrCdTdT / antisense rGrArArUrUrCrUrGrCrCrArUrUrUrUrGrCrUrAdGdC | 63
sense rUrArGrCrUrGrGrGrGrUrCrUrArGrArArGrArUdTdT / antisense rArUrCrUrUrCrUrArGrArCrCrCrCrArGrCrUrAdAdC | 82.8
